3 compounds from patent US9464042B2, “Biguanide derivative, preparation method thereof, and pharmaceutical composition containing same as an active ingredient” (IMMUNOMET THERAPEUTICS INC., priority 2010, dated 2016) can be followed below.

Bounds are passed on as bounds.

Data set [1] relates to HCT116 cells. As to the kind of experiment: Inhibition of cancer cell proliferation (MTT, GIC50). It is filed as cell-based. The conditions noted are these: Homo sapiens, HCT-116, 48 h incubation. How it is done: HCT116 cells derived from human colorectal cancer were used, and a cancer cell proliferation inhibition effect of a biguanide derivative was confirmed by measuring a concentration value (cell growth inhibition concentration, GIC50) at which cell growth was inhibited 50% using a 3-(4,5-dimethylthiazol-2-yl)-2,5-diphenyltetrazolium bromide (MTT) reagent.
First, the HCT116 cells were put on a 96-well plate and incubated for 24 hours to each have cell count of approximately 5000 in a DMEM medium containing 10% fetal bovine serum. Subsequently, to obtain the GIC50 value of each compound, 100 μM (or 200 μM), 25 μM, 6.25 μM, 1.56 μM or 0.39 μM of the compound was treated to each culture medium and then incubated for 48 hours. To confirm living cells after treatment with the compound, MTT was added to each culture medium and further incubated for 3 hours. Generated formazane crystal was dissolved using dimethyl sulfoxide (DMSO), and absorbance of the solution was measured at 560 nm. After the 48-hour incubation, a ratio of […] synthesized in the examples was indicated as cell viability (%) according to each administered concentration. A cell viability curve was plotted using the cell viability (%) and the calculated concentration value (GIC50) of the compound, at which 50% of the growth was inhibited, to confirm an effect on the inhibition of cancer cell proliferation.

The subject of data set [2] is AMPK. As to the kind of experiment: AMPK activation (AMPKα immunoassay kit, phospho-Thr172) in MCF7 cells. Format: cell-based, human. Details: AMPK Activation 50 uM (degree of phosphorylated AMPKα Thr172): unit not given here. As to conditions: 24 h; for AMPK Activation Fold: 50 uM compound vs 0 (no compound); for AMPK Activation 50 uM (degree of phosphorylated AMPKα Thr172): 50 uM compound. The protocol:
The MCF7 cells were put on a 6-well plate and incubated in a DMEM medium containing 10% fetal bovine serum in an incubator to which 5% CO2 was supplied to have a cell count of approximately 5×10^5. 50 μM of the derivatives synthesized in the examples were treated to the each culture medium, and the cells were incubated for 24 hours. Subsequently, the cells were lysed by a method presented in the operation manual of the AMPKα immunoassay kit, and 20 μg of cell lysates were yielded through protein assay.

What is called melting point is the temperature of the solid-liquid transition. As a reminder, the IC50 is the concentration at which inhibition is half-maximal. On to `CCCCN(CC)/C(=N\CCc1ccccc1)NC(=N)N.Cl` [Example 48, N4-(phenethyl)-N5,N5-(butyl)(ethyl)biguanide hydrochloride], for which the melting point fell in the range of 228 to 229 °C. Also, in data set [1], the IC50 is > 100 µM. Also, in data set [2], the “AMPK Activation Fold” value stood at 1.0 and the “AMPK Activation 50 uM (degree of phosphorylated AMPKα Thr172)” value (shortened to “AMPK Activation 50 uM”) turned out to be 6.6.

Consider `CCCCCCN(CCCCCC)/C(=N\CCc1ccccc1)NC(=N)N.Cl` [Example 49, N4-(phenethyl)-N5,N5-dihexyl biguanide hydrochloride], for which the melting point fell in the range of 138 to 140 °C. Further, the half-inhibitory concentration (IC50) in data set [1] was > 100 µM. In data set [2], the “AMPK Activation Fold” value is recorded as 5.2 and the “AMPK Activation 50 uM” value is 35.2.

`CCCCN(Cc1ccccc1)/C(=N\CCc1ccccc1)NC(=N)N.Cl` [Example 50, N4-(phenethyl)-N5,N5-(butyl)(benzyl)biguanide hydrochloride]: the melting point lay in the range of 184 to 185 °C. Also, it took 59.1 µM to reach half-maximal inhibition in data set [1] (IC50). In data set [2], the “AMPK Activation Fold” value was 4.0 and the “AMPK Activation 50 uM” value is reported as 21.4.
